{
  "source": "patent US20220033434A1",
  "about": "“ANDROGEN RECEPTOR NUCLEIC ACIDS AND USES THEREOF” (Avidity Biosciences, Inc., priority 2016, published 2022)",
  "format_in_all_cases": "cell-based, human",
  "key": {"AR-SV(2)": {"system": "AR-SV(2)", "assay": "AR protein knock-down by Western blot after siRNA transfection in 22RV1 cells: AR-SV(2)", "settings": "5 nM siRNA, 50 h post transfection, compared to controls", "method": "(§1) In some instances, a set of AR siRNAs were identified that were predicted to be specific in human and non-human primates (NHP) and cross-reactive with NHPs but not rodent AR mRNA. To identify AR siRNAs that regulate both full length AR and clinically relevant AR splice variants, the search for AR siRNAs was focused primarily, but not exclusively, on exons 1, 2 and 3 of the AR gene, which are common to most AR isoforms. The resulting set of 50 AR siRNAs (Tables 1-3) was assessed in two prostate cancer lines that express high levels of either clinically relevant AR splice variants (22RV1, ATCC) or a full length AR T877A LBD mutant (LNCaP, ATCC). The response of LNCaP tumors in xenograft models to AR antagonists is known to correlate well with clinical responses.\n(§2) To monitor their ability to downregulate various AR isoforms, each siRNA was formulated at a single final concentration of 5 nM with a commercially-available transfection reagent (Lipofectamine RNAiMAX, Life Technologies) according to the manufacturer's “forward transfection” instructions. At 50 h (22RV1) and 72 h (LNCaP) post transfection, cells were harvested, and lysed in RIPA buffer (Pierce) supplemented with HALT protease inhibitors (Pierce) using standard procedures. The protein concentration was determined using a BCA protein concentration kit (Pierce). To monitor AR levels in these lysates, proteins (30 ug/lane) were separated by PAGE on BOLT 4-12% Bis-Tris PA gels (Life Technologies), transferred to nitrocellulose using an iBlot dry blot system (Thermo Fisher), and probed with specific antibodies against a region of the N-terminal domain of human AR that is common in known clinically relevant splice variants (N20, Santa Cruz Biotech). A second antibody against α-Tubulin was used as control (P16, Santa Cruz Biotech). Levels of these proteins in the respective cell lysates were quantified on an Odyssey imaging system (LICOR) using appropriate secondary antibodies linked to IRDyes (800CW, 680RD)."}, "AR FL(1)": {"system": "AR FL(1)", "assay": "AR protein knock-down by Western blot after siRNA transfection in 22RV1 cells: AR FL(1)", "settings": "5 nM siRNA, 50 h post transfection, compared to controls", "method": "as §1, §2"}, "AR-SV(3)": {"system": "AR-SV(3)", "assay": "AR protein knock-down by Western blot after siRNA transfection in 22RV1 cells: AR-SV(3)", "settings": "5 nM siRNA, 50 h post transfection, compared to controls", "method": "as §1, §2"}, "[1]": {"system": "AR FL (full length AR T877A LBD mutant)", "assay": "AR protein knock-down by Western blot after siRNA transfection in LNCaP cells: AR FL", "settings": "5 nM siRNA, 72 h post transfection, compared to controls", "method": "as §1, §2"}},
  "note": "In the oligonucleotide strings, read from the 5' end, every base follows the letter of its sugar. An asterisk marks phosphorothioate; unmarked linkages are phosphodiester. Other units and linkages are bracketed, terminal groups are in braces. A string of capitals states the bases alone. d = 2'-deoxy (DNA); m = 2'-O-methyl; f = 2'-fluoro",
  "data": [
    {"substance": "XD-01830: AR siRNA with chemical modification, Id # 2824; sense X05355 (SEQ ID NO: 185), antisense X05356 (SEQ ID NO: 186) (sense mGmUfCmAfCmUfAmUfGmGfAmGfCmUfCmUfCmAfCdT*dT; antisense fGfUmGfAmGfAmGfCmUfCmCfAmUfAmGfUmGfAmCdT*dT)", "values": [
      {"measurement": "% KD AR Protein 22RV1 AR-SV(2)", "setting": "AR-SV(2)", "result": 72, "unit": "%"},
      {"measurement": "% KD AR Protein 22RV1 AR FL(1)", "setting": "AR FL(1)", "result": 75, "unit": "%"},
      {"measurement": "% KD AR Protein 22RV1 AR-SV(3)", "setting": "AR-SV(3)", "result": 76, "unit": "%"},
      {"measurement": "% KD AR Protein LNCaP AR FL", "setting": "[1]", "result": 90, "unit": "%"}
    ]},
    {"substance": "XD-01818: AR siRNA with chemical modification, Id # 2045; sense X05331 (SEQ ID NO: 161), antisense X05332 (SEQ ID NO: 162) (sense mCmCfCmUfUmUfCmAfAmGfGmGfAmGfGmUfUmAfCdT*dT; antisense fGfUmAfAmCfCmUfCmCfCmUfUmGfAmAfAmGfGmGdT*dT)", "values": [
      {"measurement": "% KD AR Protein 22RV1 AR-SV(2)", "setting": "AR-SV(2)", "result": "−48", "unit": "%"},
      {"measurement": "% KD AR Protein 22RV1 AR FL(1)", "setting": "AR FL(1)", "result": "−6", "unit": "%"},
      {"measurement": "% KD AR Protein 22RV1 AR-SV(3)", "setting": "AR-SV(3)", "result": 25, "unit": "%"},
      {"measurement": "% KD AR Protein LNCaP AR FL", "setting": "[1]", "result": 93, "unit": "%"}
    ]},
    {"substance": "XD-01832: AR siRNA with chemical modification, Id # 2920; sense X05359 (SEQ ID NO: 189), antisense X05360 (SEQ ID NO: 190) (sense mGmCfAmCfUmAfUmUfGmAfUmAfAmAfUmUfCmCfGdT*dT; antisense fCfGmGfAmAfUmUfUmAfUmCfAmAfUmAfGmUfGmCdT*dT)", "values": [
      {"measurement": "% KD AR Protein 22RV1 AR-SV(2)", "setting": "AR-SV(2)", "result": 93, "unit": "%"},
      {"measurement": "% KD AR Protein 22RV1 AR FL(1)", "setting": "AR FL(1)", "result": 93, "unit": "%"},
      {"measurement": "% KD AR Protein 22RV1 AR-SV(3)", "setting": "AR-SV(3)", "result": 73, "unit": "%"},
      {"measurement": "% KD AR Protein LNCaP AR FL", "setting": "[1]", "result": 92, "unit": "%"}
    ]},
    {"substance": "XD-01819: AR siRNA with chemical modification, Id # 2185; sense X05333 (SEQ ID NO: 163), antisense X05334 (SEQ ID NO: 164) (sense mCmUfGmCfGmUfAmCfCmAfGmAfGmUfCmGfCmGfAdT*dT; antisense fUfCmGfCmGfAmCfUmCfUmGfGmUfAmCfGmCfAmGdT*dT)", "values": [
      {"measurement": "% KD AR Protein 22RV1 AR-SV(2)", "setting": "AR-SV(2)", "result": 47, "unit": "%"},
      {"measurement": "% KD AR Protein 22RV1 AR FL(1)", "setting": "AR FL(1)", "result": 15, "unit": "%"},
      {"measurement": "% KD AR Protein 22RV1 AR-SV(3)", "setting": "AR-SV(3)", "result": 45, "unit": "%"},
      {"measurement": "% KD AR Protein LNCaP AR FL", "setting": "[1]", "result": 92, "unit": "%"}
    ]},
    {"substance": "XD-01857: AR siRNA with chemical modification, Id # 3473; sense X05409 (SEQ ID NO: 239), antisense X05410 (SEQ ID NO: 240) (sense mCmCfGmAfAmUfGmAfGmGfCmAfCmCfUmCfUmCfUdT*dT; antisense fAfGmAfGmAfGmGfUmGfCmCfUmCfAmUfUmCfGmGdT*dT)", "values": [
      {"measurement": "% KD AR Protein 22RV1 AR-SV(2)", "setting": "AR-SV(2)", "result": "−7", "unit": "%"},
      {"measurement": "% KD AR Protein 22RV1 AR FL(1)", "setting": "AR FL(1)", "result": 79, "unit": "%"},
      {"measurement": "% KD AR Protein 22RV1 AR-SV(3)", "setting": "AR-SV(3)", "result": 1, "unit": "%"},
      {"measurement": "% KD AR Protein LNCaP AR FL", "setting": "[1]", "result": 100, "unit": "%"}
    ]},
    {"substance": "XD-01833: AR siRNA with chemical modification, Id # 2922; sense X05361 (SEQ ID NO: 191), antisense X05362 (SEQ ID NO: 192) (sense mAmCfUmAfUmUfGmAfUmAfAmAfUmUfCmCfGmAfAdT*dT; antisense fUfUmCfGmGfAmAfUmUfUmAfUmCfAmAfUmAfGmUdT*dT)", "values": [
      {"measurement": "% KD AR Protein 22RV1 AR-SV(2)", "setting": "AR-SV(2)", "result": 91, "unit": "%"},
      {"measurement": "% KD AR Protein 22RV1 AR FL(1)", "setting": "AR FL(1)", "result": 94, "unit": "%"},
      {"measurement": "% KD AR Protein 22RV1 AR-SV(3)", "setting": "AR-SV(3)", "result": 77, "unit": "%"},
      {"measurement": "% KD AR Protein LNCaP AR FL", "setting": "[1]", "result": 91, "unit": "%"}
    ]},
    {"substance": "XD-01862: AR siRNA with chemical modification, Id # 3781; sense X05419 (SEQ ID NO: 249), antisense X05420 (SEQ ID NO: 250) (sense mGmCfGmUfGmGfAmCfUmUfUmCfCmGfGmAfAmAfUdT*dT; antisense fAfUmUfUmCfCmGfGmAfAmAfGmUfCmCfAmCfGmCdT*dT)", "values": [
      {"measurement": "% KD AR Protein 22RV1 AR-SV(2)", "setting": "AR-SV(2)", "result": 24, "unit": "%"},
      {"measurement": "% KD AR Protein 22RV1 AR FL(1)", "setting": "AR FL(1)", "result": 92, "unit": "%"},
      {"measurement": "% KD AR Protein 22RV1 AR-SV(3)", "setting": "AR-SV(3)", "result": 40, "unit": "%"},
      {"measurement": "% KD AR Protein LNCaP AR FL", "setting": "[1]", "result": 87, "unit": "%"}
    ]},
    {"substance": "XD-01814: AR siRNA with chemical modification, Id # 1784; sense X05323 (SEQ ID NO: 153), antisense X05324 (SEQ ID NO: 154) (sense mCmAfAmUfUmAfCmUfUmAfGmGfGmGfGmCfAmCfUdT*dT; antisense fAfGmUfGmCfCmCfCmCfUmAfAmGfUmAfAmUfUmGdT*dT)", "values": [
      {"measurement": "% KD AR Protein 22RV1 AR-SV(2)", "setting": "AR-SV(2)", "result": 20, "unit": "%"},
      {"measurement": "% KD AR Protein 22RV1 AR FL(1)", "setting": "AR FL(1)", "result": "−7", "unit": "%"},
      {"measurement": "% KD AR Protein 22RV1 AR-SV(3)", "setting": "AR-SV(3)", "result": "−30", "unit": "%"},
      {"measurement": "% KD AR Protein LNCaP AR FL", "setting": "[1]", "result": 94, "unit": "%"}
    ]}
  ]
}
